Peptide text beside a SMILES is read from it.
Key:
[1] = rat, in vivo; cited from earlier work
trypsin = conditions: cited from earlier work
[2] = test system: viruses pseudotyped with vesicular stomatitis virus glycoprotein, VSV-G; assay type: cell-based
chymotrypsin = conditions: cited from earlier work
HOS.CD4.CCR5 cells = experiment: MTT; assay type: cell-based; conditions: concentrations 50 fold higher than IC50 values, 24 hours continuous cellular exposure
[3] = In vitro stability to proteolysis in human serum; assay type: in vitro ADME; conditions: 24 h treatment, 37 °C, RP-HPLC 280 nm
[4] = Pharmacokinetic analysis after intravenous bolus in rats; assay type: in vivo, Sprague-Dawley rats

Row | Structure (SMILES) | Clearance rate [1] | Resistance to proteolysis by trypsin (trypsin) | Inhibition of VSV-G pseudotyped virus [2] | Resistance to proteolysis by chymotrypsin (chymotrypsin) | Toxicity in target HOS.CD4.CCR5 cells (HOS.CD4.CCR5 cells) | Stability to human serum protease mixture [3] | Time over which plasma level was detectable ([4]; after tail vein administration to rats, fluorescence) [h] | AUC(0-inf) ([4]; rat, in vivo, iv, 0.01 mg/kg) [ng·h/mL] | Vd ([4]; rat, in vivo, iv, 0.01 mg/kg) [L] | clearance ([4]; rat, in vivo, iv, 0.01 mg/kg, CL (ml/h), clearance, intravenous bolus 0.01 mg/kg FITC (equiv), Sprague-Dawley rats) [mL/min] | half-life ([4]; rat, in vivo, iv, 0.01 mg/kg, t1/2α (h), distribution half life, intravenous bolus 0.01 mg/kg FITC (equiv), Sprague-Dawley rats) [h] | half-life ([4]; rat, in vivo, iv, 0.01 mg/kg, t1/2β (h), elimination half life, intravenous bolus 0.01 mg/kg FITC (equiv), Sprague-Dawley rats) [h]
1 | COc1ccnc2[nH]cc(C(=O)C(=O)N3CCN(C(=O)c4ccccc4)C[C@H]3C)c12 [BMS-378806] | ~ 1800 mL/h | – | – | – | – | – | – | – | – | – | – | –
2 | CC[C@H](C)[C@@H]1NC(=O)[C@H](CC(N)=O)NC(=O)[C@@H](N)CC(=O)NCCCC[C@@H](C(N)=O)NC(=O)[C@H](Cc2c[nH]c3ccccc23)NC(=O)[C@@H]2C[C@H](n3cc(C4=CC=C[CH]4[Fe][CH]4C=CC=C4)nn3)CN2C1=O (stereo partly shown) [AAR029b] (HELM PEPTIDE1{D.N.I.[O=C([C@@H]1C[C@H](n2cc(C3=CC=C[CH]3[Fe][CH]3C=CC=C3)nn2)CN1[*:1])[*:2]].W.K.[am]}$PEPTIDE1,PEPTIDE1,1:R3-6:R3$$$V2.0; N-terminus and C-terminus assumed) | – | resistant to proteolysis | did not inhibit | resistant to proteolysis | No toxicity | intact | – | – | – | – | – | –
3 | CC[C@H](C)[C@@H]1NC(=O)[C@H](CC(N)=O)NC(=O)[C@@H](NC(=S)Nc2ccc3c(c2)C(=O)OC32c3ccc(O)cc3Oc3cc(O)ccc32)CC(=O)NCCCC[C@@H](C(N)=O)NC(=O)[C@H](Cc2c[nH]c3ccccc23)NC(=O)[C@@H]2C[C@H](n3cc(C4=CC=C[CH]4[Fe][CH]4C=CC=C4)nn3)CN2C1=O (stereo partly shown) [FITC-AAR029b] (HELM PEPTIDE1{[O=C1OC2(c3ccc(O)cc3Oc3cc(O)ccc32)c2ccc(NC(=S)[*:2])cc21].D.N.I.[O=C([C@@H]1C[C@H](n2cc(C3=CC=C[CH]3[Fe][CH]3C=CC=C3)nn2)CN1[*:1])[*:2]].W.K.[am]}$PEPTIDE1,PEPTIDE1,2:R3-7:R3$$$V2.0; C-terminus assumed) | – | – | – | – | – | intact | ≤ 7 | 40 ± 40 | 0.542 ± 0.119 | 2.27 | 0.029 ± 0.01 | ~3
